Measurements as given in ChEMBL document CHEMBL1201862, “PubChem BioAssay data set” (2004).
Activity calls are given as the source filed them.

Tests used:
Cytochrome P450 2C19 = Cytochrome P450 2C19 (Homo sapiens, UniProt P33261); test: qHTS Assay for Inhibitors and Substrates of Cytochrome P450 2C19. [Related pubchem assays: 410 ]; type: ADME; settings: read-out: Potency
Cytochrome P450 2C9 = Cytochrome P450 2C9 (Homo sapiens, UniProt P11712); settings: Potency
Prothrombin = Prothrombin (Homo sapiens, UniProt P00734); test: Thrombin 1536 HTS Dose Response Confirmation. [Related pubchem assays: 1046 (Thrombin 1536 HTS; hits were confirmed in this assay)]; type: functional
[1] = Trypanosoma cruzi growth suppression in host cells – NIH3T3 host cells, beta-gal luminescence, confirmation (AID 2044); type: functional, cell-based;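 further: intracellular parasites grown in NIH/3T3 mouse fibroblasts as host cells; luminescent beta-galactosidase reporter signal from transgenic T. cruzi replicating inside host cells; inhibitors lower the luminescence signal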
[2] = NIH3T3 cell viability loss – ATP luminescence, mouse fibroblasts, counter-screen, dose response (AID 2010); type: functional, cell-based;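 further: cells exposed to compound for about 90 hours before reading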
Cytochrome P450 3A4 = Cytochrome P450 3A4 (Homo sapiens, UniProt P08684); settings: Potency;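 further: confirmatory qHTS run detecting inhibitors and substrates of CYP3A4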
[3] = target: Epstein-Barr nuclear antigen 1 (Epstein-Barr virus (strain B95-8) (HHV-4) (Human herpesvirus 4), UniProt P03211); test: inhibition of EBV nuclear antigen 1 DNA binding – biochemical, fluorescence polarization, 1536-well, dose response (AID 2381); design: species or system human gammaherpesvirus 4;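 further: fluorescence polarization of a Cy5 DNA probe bound by EBNA-1 protein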
[4] = target: Lytic switch protein BZLF1 (Epstein-Barr virus (strain B95-8) (HHV-4) (Human herpesvirus 4), UniProt P03206); test: inhibition of BZLF1 ZTA DNA binding – biochemical, fluorescence polarization, Epstein-Barr virus, 1536-well, counter-screen for EBNA-1 inhibitor project, dose response (AID 2377); design: species or system human gammaherpesvirus 4;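 further: fluorescence polarization of Cy5-labelled ZRE DNA probe bound by purified Zta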
Leucine aminopeptidase = target: T1, Leucine aminopeptidase (Plasmodium falciparum 3D7, UniProt Q8IL11); test: P. falciparum M17LAP inhibitors, primary screen, biochemical, fluorogenic H-Leu-NHMec substrate, 1536-well (AID 1619); type: functional
T1 sequence (Q8IL11 whole entry): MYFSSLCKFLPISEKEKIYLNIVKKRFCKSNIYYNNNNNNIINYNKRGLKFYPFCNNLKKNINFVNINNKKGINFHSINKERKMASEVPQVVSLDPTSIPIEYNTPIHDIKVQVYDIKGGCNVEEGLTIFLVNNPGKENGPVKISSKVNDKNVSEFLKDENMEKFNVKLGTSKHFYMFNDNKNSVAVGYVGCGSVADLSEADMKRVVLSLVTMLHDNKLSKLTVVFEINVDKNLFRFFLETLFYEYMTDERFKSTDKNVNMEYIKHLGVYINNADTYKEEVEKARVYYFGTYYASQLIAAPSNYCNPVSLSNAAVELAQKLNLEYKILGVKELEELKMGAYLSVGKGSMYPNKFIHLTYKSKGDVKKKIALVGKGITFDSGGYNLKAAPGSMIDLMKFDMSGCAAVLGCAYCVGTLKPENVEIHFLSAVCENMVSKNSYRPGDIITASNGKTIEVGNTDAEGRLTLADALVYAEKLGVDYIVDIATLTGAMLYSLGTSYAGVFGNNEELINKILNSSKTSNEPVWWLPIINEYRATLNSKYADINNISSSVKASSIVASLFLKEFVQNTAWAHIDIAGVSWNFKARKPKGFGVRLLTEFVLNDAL

Aspartyl aminopeptidase = target: T2, Aspartyl aminopeptidase (Plasmodium falciparum 3D7, UniProt Q8I2J3); test: Counterscreen for inhibitors of M1 and M17 aminopeptidases: QFRET-based biochemical high throughput dose response assay for inhibitors of the Plasmodium falciparum M18 Aspartyl Aminopeptidase (PFM18AAP). [Related PubChem assays: 1619 (Screening assay (M17LAP inhibitors).), 1445 (Screening assay (M1AAP inhibitors).)]
T2 sequence (Q8I2J3 whole entry): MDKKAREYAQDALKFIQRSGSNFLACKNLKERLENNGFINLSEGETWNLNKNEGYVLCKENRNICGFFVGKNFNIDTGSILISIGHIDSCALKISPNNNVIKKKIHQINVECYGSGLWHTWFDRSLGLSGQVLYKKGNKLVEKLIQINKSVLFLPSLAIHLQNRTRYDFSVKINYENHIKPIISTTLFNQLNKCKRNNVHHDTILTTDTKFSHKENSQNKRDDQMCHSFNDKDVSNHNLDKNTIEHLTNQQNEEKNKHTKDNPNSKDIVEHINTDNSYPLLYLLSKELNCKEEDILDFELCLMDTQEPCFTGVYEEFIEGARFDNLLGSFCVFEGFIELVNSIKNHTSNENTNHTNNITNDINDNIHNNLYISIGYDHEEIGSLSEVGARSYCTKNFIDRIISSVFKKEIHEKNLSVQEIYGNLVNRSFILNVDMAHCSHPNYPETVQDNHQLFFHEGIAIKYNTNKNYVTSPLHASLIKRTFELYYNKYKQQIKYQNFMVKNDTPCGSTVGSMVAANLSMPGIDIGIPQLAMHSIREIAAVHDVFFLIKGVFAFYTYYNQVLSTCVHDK

Bcl-2-like protein 10 = target: T3, Bcl-2-like protein 10 (Homo sapiens, UniProt Q9HD36); test: Bcl-B/TR3 peptide binding disruption – biochemical, fluorescence polarization, FITC-TR3 peptide, selectivity assay for Bfl-1 inhibitor project, primary screen (AID 748);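 further: fluorescence polarization from a fluorescein-labelled TR3 peptide binding purified Bcl-B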
T3 sequence (Q9HD36 whole entry): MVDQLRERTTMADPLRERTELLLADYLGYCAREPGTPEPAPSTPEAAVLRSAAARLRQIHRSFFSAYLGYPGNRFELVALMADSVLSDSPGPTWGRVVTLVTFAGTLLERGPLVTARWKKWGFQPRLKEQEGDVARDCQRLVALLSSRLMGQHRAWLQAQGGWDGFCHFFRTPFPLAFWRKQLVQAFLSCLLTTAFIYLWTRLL

Procathepsin L = Procathepsin L (Homo sapiens, UniProt P07711); test: CTSL1 protease inhibition – biochemical, QFRET, 1536-well, counter-screen for M1/M17 aminopeptidase inhibitor project, dose response (AID 2214)
[5] = target: T4, RNA-binding protein pos-1 (Caenorhabditis elegans, UniProt G5EF15); test: disruptors of C. elegans POS-1 RNA interaction – biochemical, fluorescence polarization, dose response (AID 1964);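 further: purified POS-1 fused to maltose binding protein made in E. coli; potency of compounds blocking POS-1 binding to fluorescent RNA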
T4 sequence (G5EF15 whole entry): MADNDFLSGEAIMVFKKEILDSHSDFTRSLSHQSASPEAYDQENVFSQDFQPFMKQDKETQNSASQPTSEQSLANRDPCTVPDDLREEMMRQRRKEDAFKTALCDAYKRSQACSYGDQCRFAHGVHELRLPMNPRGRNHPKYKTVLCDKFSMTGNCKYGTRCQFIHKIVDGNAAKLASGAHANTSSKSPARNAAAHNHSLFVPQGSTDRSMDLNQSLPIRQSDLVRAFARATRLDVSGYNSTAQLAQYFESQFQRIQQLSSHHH

[6] = target: T5, Zinc finger protein mex-5 (Caenorhabditis elegans, UniProt Q9XUB2); test: potency of MEX-5 RNA-binding blockers – biochemical, C. elegans, fluorescence polarization, dose response (AID 1960)
T5 sequence (Q9XUB2 whole entry): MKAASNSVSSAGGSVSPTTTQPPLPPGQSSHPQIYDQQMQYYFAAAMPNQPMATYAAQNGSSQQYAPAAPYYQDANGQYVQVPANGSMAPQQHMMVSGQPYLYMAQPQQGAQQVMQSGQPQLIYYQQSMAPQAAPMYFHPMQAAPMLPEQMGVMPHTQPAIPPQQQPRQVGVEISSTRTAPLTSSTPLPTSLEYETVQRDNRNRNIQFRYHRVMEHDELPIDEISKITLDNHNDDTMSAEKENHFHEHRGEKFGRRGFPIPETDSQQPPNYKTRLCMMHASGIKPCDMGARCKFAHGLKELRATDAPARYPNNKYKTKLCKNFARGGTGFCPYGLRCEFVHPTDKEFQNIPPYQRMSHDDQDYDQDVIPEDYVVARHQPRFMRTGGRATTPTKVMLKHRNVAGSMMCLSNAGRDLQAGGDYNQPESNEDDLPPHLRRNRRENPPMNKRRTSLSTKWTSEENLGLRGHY

[7] = target: Heat shock protein HSP 90-alpha (Homo sapiens, UniProt P07900); test: Luminescence-based dose response biochemical high throughput screening assay for inhibitors of the Heat Shock Protein 90 (HSP90). [Related pubchem assays: 1831 (Summary AID.), 1846 (Confirmation screen.), 1789 (Primary screen.)]
[8] = target: T6, Acyl-homoserine lactone acylase PvdQ (Pseudomonas aeruginosa (strain LESB58), UniProt Q9I194); test: PvdQ acylase enzyme activity blockers – biochemical, fluorescence, plate reader and imaging, cherry-picks, dose response (AID 493231)
T6 sequence (Q9I194 whole entry): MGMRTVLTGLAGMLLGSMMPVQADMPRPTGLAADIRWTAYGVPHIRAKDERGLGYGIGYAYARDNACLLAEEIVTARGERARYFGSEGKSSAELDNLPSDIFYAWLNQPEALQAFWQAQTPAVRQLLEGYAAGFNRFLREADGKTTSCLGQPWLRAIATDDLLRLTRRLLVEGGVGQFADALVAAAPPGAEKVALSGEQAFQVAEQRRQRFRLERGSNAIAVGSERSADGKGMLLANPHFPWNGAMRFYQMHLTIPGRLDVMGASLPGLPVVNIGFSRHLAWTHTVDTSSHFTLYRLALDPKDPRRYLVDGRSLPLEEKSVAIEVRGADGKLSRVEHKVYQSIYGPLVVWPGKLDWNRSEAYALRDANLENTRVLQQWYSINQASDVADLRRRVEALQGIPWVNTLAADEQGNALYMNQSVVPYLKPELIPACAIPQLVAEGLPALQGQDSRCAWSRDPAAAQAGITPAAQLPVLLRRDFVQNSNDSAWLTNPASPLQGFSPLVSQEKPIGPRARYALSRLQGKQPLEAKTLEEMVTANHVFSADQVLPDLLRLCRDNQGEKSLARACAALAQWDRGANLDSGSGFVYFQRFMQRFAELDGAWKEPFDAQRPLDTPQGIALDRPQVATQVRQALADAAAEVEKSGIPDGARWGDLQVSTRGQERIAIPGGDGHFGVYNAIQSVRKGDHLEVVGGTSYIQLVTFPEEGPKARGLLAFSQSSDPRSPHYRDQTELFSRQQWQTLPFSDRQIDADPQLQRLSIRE

Protein skinhead-1 = target: T7, Protein skinhead-1 (Caenorhabditis elegans, UniProt P34707); type: functional
T7 sequence (P34707 whole entry): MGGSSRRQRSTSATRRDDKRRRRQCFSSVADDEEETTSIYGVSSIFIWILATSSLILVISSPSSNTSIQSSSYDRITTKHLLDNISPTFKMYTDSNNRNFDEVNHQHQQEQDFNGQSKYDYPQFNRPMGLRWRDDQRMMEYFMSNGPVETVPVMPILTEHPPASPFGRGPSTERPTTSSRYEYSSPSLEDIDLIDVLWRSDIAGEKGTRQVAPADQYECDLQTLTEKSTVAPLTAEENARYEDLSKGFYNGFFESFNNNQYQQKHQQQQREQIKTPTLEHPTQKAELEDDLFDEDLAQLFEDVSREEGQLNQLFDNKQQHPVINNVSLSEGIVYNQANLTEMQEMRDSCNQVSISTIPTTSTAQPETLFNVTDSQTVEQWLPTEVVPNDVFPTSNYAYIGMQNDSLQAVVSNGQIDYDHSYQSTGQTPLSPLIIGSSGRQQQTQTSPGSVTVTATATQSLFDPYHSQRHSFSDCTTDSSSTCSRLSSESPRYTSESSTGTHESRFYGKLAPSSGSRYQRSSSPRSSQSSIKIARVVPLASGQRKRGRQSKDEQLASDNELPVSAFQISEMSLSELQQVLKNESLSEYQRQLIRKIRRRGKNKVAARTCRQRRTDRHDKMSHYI

[9] = luciferase reporter signal suppression in cells – H4 neuroglioma cells, luminescence, dose response (AID 1990); type: functional, cell-based
[10] = Luminescence Cell-Based Dose Response HTS to Identify Inhibitors of 5'UTR Stem-Loop Driven Prion Protein mRNA Translation in H4 Neuroglioblastoma Cells. [Related pubchem assays: 1827 (Project Summary), 1813 (Primary HTS)]; type: functional
[11] = alpha-synuclein stem-loop luciferase translation blockers – H4 neuroglioma cells, luminescence, confirmation (AID 1988); type: functional, cell-based

Epstein-Barr nuclear antigen 1, sequence (P03211 whole entry): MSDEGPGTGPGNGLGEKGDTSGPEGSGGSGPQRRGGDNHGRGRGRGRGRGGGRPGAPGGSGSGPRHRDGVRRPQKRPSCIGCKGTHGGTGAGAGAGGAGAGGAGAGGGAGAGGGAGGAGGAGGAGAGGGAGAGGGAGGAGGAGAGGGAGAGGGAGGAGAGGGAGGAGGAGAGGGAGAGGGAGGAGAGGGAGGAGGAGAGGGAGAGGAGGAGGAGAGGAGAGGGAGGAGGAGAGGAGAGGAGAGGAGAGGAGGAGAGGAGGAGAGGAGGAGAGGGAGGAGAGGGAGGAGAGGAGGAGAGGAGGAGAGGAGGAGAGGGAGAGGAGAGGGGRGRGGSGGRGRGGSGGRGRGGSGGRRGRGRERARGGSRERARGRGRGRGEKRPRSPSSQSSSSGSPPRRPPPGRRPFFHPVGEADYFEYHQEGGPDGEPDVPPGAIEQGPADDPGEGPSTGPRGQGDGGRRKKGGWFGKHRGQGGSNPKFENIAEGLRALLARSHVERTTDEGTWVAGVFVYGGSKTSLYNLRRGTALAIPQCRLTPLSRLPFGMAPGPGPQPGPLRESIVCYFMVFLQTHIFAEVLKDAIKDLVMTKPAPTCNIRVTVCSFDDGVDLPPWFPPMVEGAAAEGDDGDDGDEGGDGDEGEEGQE
Cytochrome P450 2C19, sequence (P33261 whole entry): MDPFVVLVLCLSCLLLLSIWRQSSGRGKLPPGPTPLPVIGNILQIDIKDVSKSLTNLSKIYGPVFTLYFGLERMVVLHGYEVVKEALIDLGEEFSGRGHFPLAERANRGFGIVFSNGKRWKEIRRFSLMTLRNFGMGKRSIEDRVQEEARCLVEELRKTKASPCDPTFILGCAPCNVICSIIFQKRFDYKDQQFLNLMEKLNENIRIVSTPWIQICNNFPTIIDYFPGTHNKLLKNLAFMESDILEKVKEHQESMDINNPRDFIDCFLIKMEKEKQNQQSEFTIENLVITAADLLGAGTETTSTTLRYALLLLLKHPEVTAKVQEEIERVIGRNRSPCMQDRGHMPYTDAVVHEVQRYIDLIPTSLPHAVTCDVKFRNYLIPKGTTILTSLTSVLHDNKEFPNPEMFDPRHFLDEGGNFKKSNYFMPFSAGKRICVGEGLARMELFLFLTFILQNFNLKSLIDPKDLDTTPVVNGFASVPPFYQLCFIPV
Lytic switch protein BZLF1, sequence (P03206 whole entry): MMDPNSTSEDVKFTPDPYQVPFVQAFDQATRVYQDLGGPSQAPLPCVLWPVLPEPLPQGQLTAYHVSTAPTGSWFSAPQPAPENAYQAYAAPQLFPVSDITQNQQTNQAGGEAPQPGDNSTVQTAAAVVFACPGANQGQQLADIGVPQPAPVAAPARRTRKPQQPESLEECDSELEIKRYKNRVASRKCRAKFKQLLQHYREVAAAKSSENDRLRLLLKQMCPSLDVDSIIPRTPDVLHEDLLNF
Procathepsin L, sequence (P07711 whole entry, the tested form may be a part): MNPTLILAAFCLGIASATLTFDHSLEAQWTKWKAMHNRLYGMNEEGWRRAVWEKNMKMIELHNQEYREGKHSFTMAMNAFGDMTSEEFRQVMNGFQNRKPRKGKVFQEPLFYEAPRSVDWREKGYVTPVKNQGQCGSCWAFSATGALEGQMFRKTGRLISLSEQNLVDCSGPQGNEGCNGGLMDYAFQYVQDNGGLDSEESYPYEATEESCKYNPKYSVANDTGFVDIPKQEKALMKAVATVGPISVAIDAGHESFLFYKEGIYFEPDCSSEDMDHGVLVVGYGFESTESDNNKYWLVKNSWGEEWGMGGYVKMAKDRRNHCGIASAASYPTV
Cytochrome P450 3A4, sequence (P08684 whole entry): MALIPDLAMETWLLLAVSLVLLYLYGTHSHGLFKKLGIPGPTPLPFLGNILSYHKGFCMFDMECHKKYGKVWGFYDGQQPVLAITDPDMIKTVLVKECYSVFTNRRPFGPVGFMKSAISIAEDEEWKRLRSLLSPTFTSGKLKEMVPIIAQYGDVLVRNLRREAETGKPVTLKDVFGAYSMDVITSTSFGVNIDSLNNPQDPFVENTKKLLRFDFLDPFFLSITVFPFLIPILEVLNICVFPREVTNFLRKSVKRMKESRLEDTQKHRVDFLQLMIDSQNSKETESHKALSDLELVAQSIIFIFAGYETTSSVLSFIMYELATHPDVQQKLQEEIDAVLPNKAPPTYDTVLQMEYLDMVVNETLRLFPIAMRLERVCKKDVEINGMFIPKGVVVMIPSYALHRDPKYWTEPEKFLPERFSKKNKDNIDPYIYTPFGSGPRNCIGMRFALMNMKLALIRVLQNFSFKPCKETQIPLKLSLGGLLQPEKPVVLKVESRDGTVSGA
Cytochrome P450 2C9, sequence (P11712 whole entry): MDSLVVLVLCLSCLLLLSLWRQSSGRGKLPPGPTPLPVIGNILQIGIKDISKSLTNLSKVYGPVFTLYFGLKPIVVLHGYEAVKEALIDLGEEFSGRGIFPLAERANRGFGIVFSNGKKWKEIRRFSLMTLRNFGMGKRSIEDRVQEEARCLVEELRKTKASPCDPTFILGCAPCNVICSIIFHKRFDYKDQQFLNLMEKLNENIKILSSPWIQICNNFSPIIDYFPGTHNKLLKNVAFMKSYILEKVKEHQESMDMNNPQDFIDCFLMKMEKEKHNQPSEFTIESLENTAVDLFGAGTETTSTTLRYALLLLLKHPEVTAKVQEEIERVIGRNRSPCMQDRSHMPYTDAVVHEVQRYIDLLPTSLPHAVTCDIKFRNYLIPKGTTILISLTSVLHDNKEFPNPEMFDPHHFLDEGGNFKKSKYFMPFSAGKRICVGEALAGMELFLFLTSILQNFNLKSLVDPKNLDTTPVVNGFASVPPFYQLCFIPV

Compound: Cc1ccc(/C=C/C2=CC3(C)CC2(C)C(c2ccc(C)cc2)CC3=O)cc1 (stereo unspecified)
- AC50 (Cytochrome P450 2C19): 0.631 µM (inconclusive)
- AC50 (Cytochrome P450 2C9): 3.98 µM (inconclusive)

Compound: CC(=O)N1c2ccccc2N2C(c3c(C)c(C)cc(C)c3C)=NON12
- IC50 (Prothrombin): 3.37 µM (active)

Compound: CCOc1ccc(CNCCc2ccc3c(c2)OCO3)cc1
- EC50 [1]: < 0.1 µM (active)
- EC50 [2]: > 60 µM (not active)
- EC50 (cells): 0.496 µM (active)

Compound: COC(=O)C/C=C/C(C)C(OCc1cccc(Br)c1)C(C)C(OC)C1CCCCC1 (stereo unspecified)
- AC50 (Cytochrome P450 2C19): 5.01 µM (inconclusive)
- AC50 (Cytochrome P450 3A4): 3.98 µM (inconclusive)

Compound: Cc1ccc(CNC(=O)CCC2CCCN(Cc3c(C)nn(C(C)C)c3C)C2)o1 (stereo unspecified)
- EC50 [1]: < 0.1 µM (active)
- EC50 [2]: > 60 µM (not active)
- EC50 (cells): 0.011 µM (active)

Compound: COc1ccc2oc(C(=O)OCC(=O)Nc3cc(S(=O)(=O)N4CCOCC4)ccc3C)c(C)c2c1
- IC50 [3]: 5.76 µM (active)
- IC50 [4]: > 111 µM (not active)

Compound: COC(=O)c1cccc(NC(=O)CSc2nc(C)cc(O)n2)c1
- IC50 (Leucine aminopeptidase): 7.51 µM (active)
- IC50 (Aspartyl aminopeptidase): > 73.5 µM (not active)
- IC50 (Bcl-2-like protein 10): 56.8 µM (inactive)
- IC50 (Procathepsin L): > 59.6 µM (not active)

Compound: CCOC(=O)c1ccc(-c2ccc(C=O)o2)cc1
- EC50 [5]: 43.6 µM (active)
- EC50 [6]: > 300 µM (not active)
- IC50 [7]: 10.3 µM (not active)
- AC50 [8]: 9.42 µM (active)

Compound: CC(C)OCCCn1c(=S)[nH]c2cc3c(cc2c1=O)OCO3
- IC50 (Prothrombin): > 50 µM (not active)
- IC50 (Protein skinhead-1): > 100 µM (inactive)

Compound: COc1ccc(C(C)(C)C)cc1NC(=O)C1CC=CCC1C(=O)O (stereo unspecified)
- IC50 (Leucine aminopeptidase): 3.05 µM (active)
- IC50 (Aspartyl aminopeptidase): > 73.5 µM (not active)
- IC50 (Procathepsin L): > 59.6 µM (not active)

Compound: CCn1nnc(-c2ccccc2NC(=O)c2cccc(-n3cnnn3)c2)n1
- EC50 [9]: 22.5 µM (active)
- EC50 [10]: 14.9 µM (active)
- EC50 [11]: > 120 µM (not active)
- IC50 [3]: 13.5 µM (not active)
- IC50 [4]: > 111 µM (not active)
